Test results as given in patent US20240091267A1, “PRE-TREATMENT OF MSC WITH PPARB/DELTA AGONIST FOR TREATMENT OF ISCHEMIA-REPERFUSION INJURY” (Universite de Montpellier, priority 2020, published 2024).

Columns and labels:
MSC = assay: Specific DNA fragmentation (Cell Death ELISA) in MSC exposed to H2O2-induced oxidative stress; format: cell-based, mouse; conditions: then 250 μM H2O2 4 h, vs naive MSC/H2O2
Procedure: FIG. 6: Increased resistance to oxidative stress and survival of PPARβ/δ-primed MSC. (A) 48 hours after the seeding step in complete medium, MSC were subjected to H2O2-induced oxidative stress during 4 hours in minimal medium with serum deprivation. Pharmacological preconditioning of MSC using PPARβ/δ agonist or antagonist was performed 24 hours before oxidative stress exposure. At the end of the protocol, cell death or relative gene expression was analyzed measuring specific DNA fragmentation by ELISA and transcript amounts by RT-qPCR. (B): Scatter plot and bars were presented for specific DNA fragmentation quantification measured in MSC treated with H2O2 at various concentrations (0, 100, 150, 250, 500 and 750 μM) for 4 h in minimal medium. Data (normalized by the control value obtained with untreated MSC) were plotted as scatter dot blots and mean±SD for each group of treatment and compared using Kruskal-Wallis (Dunn's post hoc test) and were noted **** for p<0.0001 (250 group, n=11 independent cultures vs 0 group, n=13), ** for p=0.0013 (100 group, n=10 vs 0 group, n=13), ** for p=0.0015 (350 group, n=9 vs 0 group, n=13), **for p=0.0015 (500 group, n=9 vs 0 group, n=13) and * for p=0.0332 (750 group, n=3 vs 0 group, n=13). (C): Scatter plots and bars were presented for specific DNA fragmentation quantification measured in MSC treated with 250 μM of H2O2 pretreated with GW0742 or GSK0660 at 0.1 and 1 μM 24 hours before H2O2 exposure. […]
DNA fragmentation was quantified in vitro on cell lysates with an enzyme-linked immunosorbent assay kit (Cell Death ELISA; Roche Diagnostics) designed to measure of histone-complexed DNA fragments (mono- and oligonucleosomes) out of the cytoplasm of cells after the induction of apoptosis.
To do this, MSC were submitted to an IR-simulated stress in vitro using various concentrations of H2O2 (100, 250, 350, 500 and 750 μM; see the protocol on FIG. 6A) for 4 hours. Apoptosis quantification was assessed by the mean of specific DNA fragmentation measurement for the different groups of treatment. […]

[1] = test system: infarcted myocardial tissue; assay: MSC grafted in infarcted myocardial tissue, fluorescence of Dil-labeled MSC in LV sections; design: species or system mouse (C57BL/6J); conditions: Dil-labeled MSC pretreated 1 μM vs naive MSC
Procedure: MSCs were pre-incubated for 24 hours with either PPARβ/δ antagonists GSK3787 (0.1 and 1 μM), PPARβ/δ inverse agonist GSK0660 (0.1 and 1 μM) or PPARβ/δ agonist GW0742 (0.1, 1 and 5 μM) before to be washed with PBS and used in co-cultures experiments or injected in the myocardium. When indicated, MSCs were labeled with the fluorescent cell-tracer CM-Dil (Molecular Probes). MSC were collected and suspended in 5 mL PBS containing CM-Dil (10^7 cells/10 μg) prior to be incubated at 37° C. for 5 minutes followed by 15 minutes at 4° C., in the dark. Labeled MSCs were washed 2 times in PBS, resuspended in PBS and maintained at 4° C. prior to be injected in the myocardium.
At the end of ex vivo experiments, left ventricles (LV) were fixated in formol and embedded in paraffin. Each left ventricle was cut from the apex through the base (4 μm sections each 150 μm). Paraffin-embedded sections were deparaffinised then rehydrated through an alcohol gradient. Sections were mounted in Mowiol (Biovalley). LV Sections were scanned by the Zeiss Axio Scan Z1 slide scanner (Zeiss, Oberkochen, Germany). Scanning was done with the ×20 objective. Images were analyzed using ImageJ.

[2] = test system: TXNIP (Thioredoxin interacting protein); conditions: neuronal stress; neonatal hypoxic-ischemic injury in rats; cited from earlier work
[3] = test system: C57B16 mouse hearts subjected to IR injury; assay: Ex vivo Langendorff ischemia-reperfusion, infarct size (Example 2, naive or pretreated MSC); design: species or system mouse (C57BL/6J); conditions: MSC 2,500 cells/mL (3.10^5 MSC) pretreated 24 h with GW0742 1 μM; mean±SD
[4] = test system: isolated perfused hearts from C57B16 mice; assay: Ex vivo Langendorff ischemia-reperfusion, infarct size, effect of preconditioning duration (Example 3); design: species or system mouse (C57BL/6); conditions: MSC preconditioned 24 h with 1 μM, 5,000 cells/ml, vs IR

## COC(=O)c1sccc1S(=O)(=O)Nc1ccc(Nc2ccccc2)cc1OC [GSK0660]
MSC; MSC pretreated 24 h with 1 μM
  Specific DNA fragmentation (MSC resistance to oxidative stress): impaired MSC resistance against H2O2-induced oxidative without reaching significance

## Cc1cc(SCc2sc(-c3ccc(C(F)(F)F)c(F)c3)nc2C)ccc1OCC(=O)O [GW0742]
[1]
  Percentage of fluorescence (MSC grafted in infarcted myocardium) increased by: 3.5 times
[2]
  TXNIP inhibition: inhibits TXNIP
[3]
  Infarct size: same cardioprotective effect
MSC; MSC pretreated 24 h with 0.1 μM
  Specific DNA fragmentation (MSC resistance to oxidative stress): did not modify the capacity of MSC to resist against oxidative stress
MSC; MSC pretreated 24 h with 1 μM
  Specific DNA fragmentation (MSC resistance to oxidative stress): enhanced significantly MSC resistance
[4]
  Decrease in infarct size: 54.6%
